Test results reported in patent publication US11554048B2, “System and method for treating meibomian gland dysfunction” (The Schepens Eye Research Institute, Inc., priority 2018, dated 2023).

Test system: iHMGEC
Assay: Terminal differentiation of iHMGECs under low oxygen combined with phospholipidosis-inducing drug
Format: cell-based, human
Conditions: low oxygen levels combined with drug exposure, 10 μg/ml
Text: This hypoxic effect is associated with a significant rise in the number and size of lysosomes, as well as increased DNase II activity and decreased Lamp-1 expression. These latter changes are consistent with heightened terminal differentiation and holocrine secretion.

Question: How did the “hypoxic influence on terminal differentiation” value turn out when `CC[C@H]1OC(=O)[C@H](C)[C@@H](O[C@H]2C[C@@](C)(OC)[C@@H](O)[C@H](C)O2)[C@H](C)[C@@H](O[C@@H]2O[C@H](C)C[C@H](N(C)C)[C@H]2O)[C@](C)(O)C[C@@H](C)CN(C)[C@H](C)[C@@H](O)[C@]1(C)O` [azithromycin] was run?
Answer: further enhanced
